According to US20260108546A1 (ELI LILLY AND COMPANY, priority 2024, published 2026):

Biological target: T1, hGIP-R (Homo sapiens, UniProt P48546)
T1 construct: expressed in transfected cells; host or cells: HEK-293 clonal cell lines
T1 sequence (P48546 22-466): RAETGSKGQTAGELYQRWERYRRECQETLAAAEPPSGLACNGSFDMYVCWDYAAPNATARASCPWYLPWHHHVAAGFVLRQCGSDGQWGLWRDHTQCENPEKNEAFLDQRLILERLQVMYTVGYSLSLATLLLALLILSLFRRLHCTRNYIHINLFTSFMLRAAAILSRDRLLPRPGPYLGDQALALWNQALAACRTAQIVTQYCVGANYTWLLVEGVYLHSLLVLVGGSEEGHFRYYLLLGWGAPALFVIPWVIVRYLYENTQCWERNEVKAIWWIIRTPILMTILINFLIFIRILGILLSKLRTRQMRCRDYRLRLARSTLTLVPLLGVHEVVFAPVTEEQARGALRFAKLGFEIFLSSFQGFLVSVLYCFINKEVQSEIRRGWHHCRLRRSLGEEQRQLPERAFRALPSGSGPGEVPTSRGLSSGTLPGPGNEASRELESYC
Assay: Functional hGIP-R Assay (cAMP formation, HTRF)
Format: cell-based
Conditions: for Emax: cAMP efficacy, percent of maximal response to GIP(1-42)OH, 37° C., 0.1% bovine casein, arithmetic mean ± SEM; for EC50: cAMP potency, HEK-293 cells expressing hGIP-R, incubated at 37° C. in the presence of 0.1% bovine casein, geometric mean, read-out: Human GIP-R EC50, nM (SEM, n)
Method: Functional activity was determined using CAMP formation in HEK-293 clonal cell lines expressing hGIP-R. hGIP-R receptor expressing cells were treated with compound (20 point concentration-response curve in DMSO, 2-fold Labcyte Echo direct dilution, 384 well plate Corning Cat #3570) in DMEM (Gibco Cat #31053) supplemented with 1× GlutaMAX™ (Gibco Cat #35050), 0.1% bovine casein (Sigma C4765-10ML), 250 μM IBMX (3-Isobutyl-1-methylxanthine, Acros Cat #228420010) and 20 mM HEPES (Gibco Cat #15630) in a 20 μL assay volume (final DMSO concentration was 1%). After a 30 min incubation at 37° C., the resulting increase in intracellular cAMP was quantitatively determined using the Revvity CAMP Dynamic 2 HTRF Assay Kit (62AM4PEJ). Briefly, cAMP levels within the cell were detected by adding the cAMP-d2 conjugate in cell lysis buffer (10 μL) followed by the antibody anti-cAMP-Eu^3+-Cryptate, also in cell lysis buffer (10 μL). The resulting competitive assay was incubated for at least 60 min at RT, then detected using a BMG Labtech PHERAstar FSX instrument with excitation at 320 nm and emission at 665 nm and 620 nm. PHERAstar units (emission at 665 nm/620 nm*10,000) are inversely proportional to the amount of cAMP present and were converted to nM cAMP per well using a CAMP standard curve. The amount of cAMP generated (nM) in each well was converted to a percent of the maximal response observed with human GIP (1-42) OH. A relative EC50 value and percent top (Emax) were derived by non-linear regression analysis using the percent maximal response vs. the concentration of compound added, fitted to a four-parameter logistic equation.

| Emax | EC50 | Structure (SMILES) |
| --- | --- | --- |
| 123 ± 4.24% | 22.6 nM | Cn1cc(C[C@@H](NC(=O)[C@H]2C[C@@H]2c2ccc(-c3cnc4nn(C)cc4c3)cc2)C(=O)NC(C)(C)Cn2nc(C(F)(F)F)cc2-c2ccn(C3CCOC3)n2)cn1 (mixture of isomers) [Example 53, (1S,2S)-N-((R)-1-((2-Methyl-1-(1-((RS)-tetrahydrofuran-3-yl)-5′-(trifluoromethyl)-1H,2′H-[3,3′-bipyrazol]-2′-yl)propan-2-yl)amino)-3-(1-methyl-1H-pyrazol-4-yl)-1-oxopropan-2-yl)-2-(4-(2-methyl-2H-pyrazolo[3,4-b]pyridin-5-yl)phenyl) cyclopropane-1-carboxamide, mixture of 2 diastereomers] |
| 112 ± 0.275% | 49.7 nM | Cn1cc(C[C@@H](NC(=O)[C@H]2C[C@@H]2c2ccc(-c3cnc4nn(C)cc4c3)cc2)C(=O)NC(C)(C)Cn2nc(C(F)(F)F)cc2-n2nccn2)cn1 (single isomer, unassigned) [Example 13] |
| 120 ± 5.11% | 0.234 nM | CN1CCC(n2cc(C(F)(F)F)nc2CC(C)(C)NC(=O)[C@@H](Cc2cnn(C(F)F)c2)N2CC[C@@]3(C[C@@H]3c3ccc(-c4cnc5nc(C6CC6)cn5c4)cc3Cl)C2=O)C1=O (single isomer, unassigned) [Example 146] |
| 116 ± 2.13% | 0.359 nM | CC(C)(Cn1nc(C(F)(F)F)cc1-c1ccn(C2CC2)c(=O)c1)NC(=O)[C@@H](Cc1cnn(C(F)F)c1)N1CCC2(CC2c2ccc(-c3cnc4nc(C5CC5)cn4c3)nc2C2CC2)C1=O (single isomer, unassigned) [Example 166] |
| 92.1 ± 0.883% | 0.753 nM | Cc1cn2cc(-c3ccc(C4CC45CCN([C@H](Cc4cnn(C(F)F)c4)C(=O)NC(C)(C)Cn4nc(C(F)(F)F)cc4-c4ccn(C6CC6)c(=O)c4)C5=O)c(C4CC4)n3)cnc2n1 (single isomer, unassigned) [Example 167] |
| 15.2 ± 1.27% | 15.2 nM | Cn1cc(-c2cc(C(F)(F)F)nn2CC(C)(C)NC(=O)[C@@H](Cc2cnn(C(F)F)c2)N2CCC3(CC3c3ccc4cnn(C)c4c3)C2=O)cc(F)c1=O (single isomer, unassigned) [Example 184] |
| 69.2 ± 0.431% | 6.84 nM | Cn1cc2cc(-c3ccc([C@H]4C[C@@]45CCN([C@H](Cc4cnn(C(F)F)c4)C(=O)NC(C)(C)Cn4nc(C(F)(F)F)cc4-c4cc(F)c(=O)n(C)c4)C5=O)c(F)c3)cnc2n1 (single isomer, unassigned; isomer 1) [Example 99] |
| 59.6 ± 0.0693% | 58.5 nM | Cc1cn2cc(-c3ccc([C@H]4C[C@@]45CCN([C@H](Cc4cnn(C(F)F)c4)C(=O)NC(C)(C)Cn4nc(C(F)(F)F)cc4-c4cnc(C6CC6)nc4)C5=O)cc3)cnc2n1 (single isomer, unassigned; isomer 1) [Example 101] |
| 69.4 ± 0.0734% | 50.9 nM | Cc1cn2cc(-c3ccc([C@H]4C[C@@]45CCN([C@H](Cc4cnn(C(F)F)c4)C(=O)NC(C)(C)Cn4nc(C(F)(F)F)cc4-c4cnc(C(F)(F)F)nc4)C5=O)cc3)cnc2n1 (single isomer, unassigned; isomer 1) [Example 102] |
| 73.3 ± 6.2% | 99.6 nM | CN1CC2C=C(c3ccc([C@H]4C[C@@]45CCN([C@H](Cc4cnn(C(F)F)c4)C(=O)NC(C)(C)Cn4nc(C(F)(F)F)cc4-c4cnc(C(F)(F)F)nc4)C5=O)cc3)C=NC2C1=O (single isomer, unassigned; isomer 1) [Example 103] |
| 89 ± 1.12% | 54.6 nM | Cn1cc(-c2cc(C(F)(F)F)nn2CC(C)(C)NC(=O)[C@@H](Cc2cnn(C(F)F)c2)N2CC[C@@]3(C[C@@H]3c3ccc(-c4cnc5nc(C(C)(C)O)ccc5c4)cc3)C2=O)ccc1=O (single isomer, unassigned; isomer 1) [Example 104] |
| 8.43 ± 1.23% | 49.8 nM | COc1cc2cc(-c3ccc([C@H]4C[C@@]45CCN([C@H](Cc4cnn(C(F)F)c4)C(=O)NC(C)(C)Cn4nc(C(F)(F)F)cc4-c4ccc(=O)n(C)c4)C5=O)cc3)cnc2nc1C (single isomer, unassigned; isomer 1) [Example 105] |
| 77.3 ± 7.69% | 36.3 nM | CN1CC(n2cc3cc(-c4ccc([C@H]5C[C@@]56CCN([C@H](Cc5cnn(C(F)F)c5)C(=O)NC(C)(C)Cn5nc(C(F)(F)F)cc5-c5cc(F)c(=O)n(C)c5)C6=O)c(F)c4)cnc3n2)C1 (single isomer, unassigned; isomer 1) [Example 106] |
| 108 ± 0.709% | 36.2 nM | Cn1cc(-c2cc(C(F)(F)F)nn2CC(C)(C)NC(=O)[C@@H](Cc2cnn(C(F)F)c2)N2CC[C@@]3(C[C@@H]3c3ccc(-c4cnc5nn(CCO)cc5c4)cc3F)C2=O)cc(F)c1=O (single isomer, unassigned; isomer 1) [Example 107] |
| 81.7 ± 1.63% | 0.47 nM | Cc1cn2cc(-c3ccc(C4CC45CCN([C@H](Cc4cnn(C(F)F)c4)C(=O)NC(C)(C)Cn4nc(C(F)(F)F)cc4-c4cc(F)c(=O)n(C)c4)C5=O)c(C(F)F)c3)cnc2n1 (single isomer, unassigned; isomer 1) [Example 108] |
| 50.8 ± 1.54% | 4.34 nM | Cc1cn2cc(-c3ccc(C4CC45CCN([C@H](Cc4cnn(C(F)F)c4)C(=O)NC(C)(C)Cn4nc(C(F)(F)F)cc4-c4cnc(C)nc4)C5=O)c(C)n3)cnc2n1 (single isomer, unassigned; isomer 1) [Example 110] |
| 28 ± 0.197% | 6.75 nM | Cc1ncc(-c2cc(C(F)(F)F)nn2CC(C)(C)NC(=O)[C@@H](Cc2cnn(C(F)F)c2)N2CCC3(CC3c3ccc(-c4cnc5nn(C)cc5c4)nc3C)C2=O)cn1 (single isomer, unassigned; isomer 1) [Example 111] |
| 62 ± 0.9% | 3.21 nM | Cc1ncc(-c2cc(C(F)(F)F)nn2CC(C)(C)NC(=O)[C@@H](Cc2cnn(C(F)F)c2)N2CCC3(CC3c3ccc(-c4cnc5nn(C)cc5c4)nc3C(F)(F)F)C2=O)cn1 (single isomer, unassigned; isomer 1) [Example 112] |
| 45.5 ± 2.18% | 1.22 nM | Cn1cc2cc(-c3ccc(C4CC45CCN([C@H](Cc4cnn(C(F)F)c4)C(=O)NC(C)(C)Cn4nc(C(F)(F)F)cc4-c4ccc(=O)n(C)c4)C5=O)c(C(F)(F)F)n3)cnc2n1 (single isomer, unassigned; isomer 1) [Example 113] |
| 80.3 ± 0.191% | 1.79 nM | [2H]C([2H])([2H])n1cc(C[C@H](C(=O)NC(C)(C)Cn2nc(C(F)(F)F)cc2-c2cnc(C)nc2)N2CC[C@@]3(C[C@@H]3c3ccc(-c4cnc5nn(C)cc5c4)cc3Cl)C2=O)cn1 (single isomer, unassigned; isomer 1) [Example 114] |
| 87.3 ± 0.526% | 4.65 nM | [2H]C([2H])([2H])n1cc(C[C@H](C(=O)NC(C)(C)Cn2nc(C(F)(F)F)cc2-c2cnc(C)nc2)N2CCC3(CC3c3ccc(-c4cnc5nn(C)cc5c4)nc3C(F)(F)F)C2=O)cn1 (single isomer, unassigned; isomer 1) [Example 115] |
| 23.1 ± 0.52% | 127 nM | CC(=O)N1CCN(c2ccc(C3CC34CCN([C@H](Cc3cnn(C(F)F)c3)C(=O)NC(C)(C)Cn3nc(C(F)(F)F)cc3-c3cnc(C)nc3)C4=O)c(C(F)(F)F)n2)CC1 (single isomer, unassigned; isomer 1) [Example 116] |
| 59.3 ± 1.52% | 4.02 nM | Cn1cc2cc(-c3ccc([C@H]4C[C@@]45CCN([C@H](Cc4cnn(C(F)F)c4)C(=S)NC(C)(C)Cn4nc(C(F)(F)F)cc4-c4cc(F)c(=O)n(C)c4)C5=O)c(F)c3)cnc2n1 (single isomer, unassigned; isomer 1) [Example 118] |
